{"source": "patent US20220331290A1", "about": "“PHARMACEUTICAL COMPOSITION FOR PREVENTING OR TREATING SARCOPENIA, CONTAINING UNNATURAL AMINO ACID” (MYO-TEC-SCI, priority 2019, published 2022)", "key": {"[1]": {"system": "myostatin mRNA", "assay": "Myostatin mRNA expression by qRT-PCR in C2C12 cells, corrected with beta-actin", "type": "cell-based, mouse", "conditions": "C2C12, medium without L-leucine", "experimental": "After seeding mouse skeletal muscle cells C2C12 (ATCC, US) 3×10^5 cells in a 6-well culture plate, on the next day, D-leucine was treated at concentrations of 0.01 mM, 0.1 mM, and 1 mM in a complete medium (0.8 mM L-leucine) and a medium without L-leucine. […]"}, "[2]": {"system": "myostatin promoter", "assay": "Myostatin promoter activity, dual luciferase assay in C2C12 cells transfected with pGL4.15-MSTN", "type": "cell-based, mouse", "conditions": "for promoter activity of myostatin: C2C12, medium without L-leucine; for myostatin promoter activity reduced by: 1 mM, C2C12 cells, medium without L-leucine, after one day", "experimental": "After seeding 1×10^5 cells of mouse skeletal muscle cells C2C12 (ATCC, US) in a 12-well culture plate, on the next day, pGL4.15 empty vector and pGL4.15-MSTN vector containing myostatin promoter were transfected using Lipofectamine 2000 for 4 hours. After 4 hours, the complete medium (0.8 mM L-leucine) and the medium without L-leucine were treated with D-leucine or DL-leucine at concentrations of 0.001 mM, 0.01 mM, 0.1 mM, and 1 mM, respectively. After one day, a dual luciferase assay kit (Promega Inc.) was used to measure the promoter activity of myostatin.\nIn the same manner as the experiment to examine the inhibitory effect of a myostatin promoter activity by D-leucine or DL-leucine, D-alanine was treated at concentrations of 0.01 mM, 0.1 mM, 1 mM, and 10 mM in a medium without L-leucine, and a dual luciferase assay kit (Promega Inc.) was used to measure the promoter activity of myostatin.\nIn the same manner as in the experiment to examine the inhibitory effect of a myostatin promoter activity by D-leucine or DL-leucine, and D-alanine, D-proline was treated at concentrations of 0.001 mM, 0.01 mM, 0.1 mM, and 1 mM in a medium without L-leucine, and a dual luciferase assay kit (Promega Inc.) was used to measure the promoter activity of myostatin.\nIn the same manner as the myostatin promoter activity experimental method performed in Example 1 above, D-phenylalanine (0.001-0.1 mM), D-serine (0.001-0.1 mM), D-tyrosine (0.0001-0.01 mM), D-asparagine monohydrate (0.001-0.1 mM), D-aspartic acid (0.0001-0.01 mM), D-methionine (0.001-0.1 mM), D-cysteine hydrochloride monohydrate (0.001-0.1 mM), D-glutamic acid (0.0001-0.01 mM), D-arginine (0.001-0.1 mM), and D-tryptophan (0.001-0.1 mM) were treated, respectively. The myostatin mRNA expression level was identified using qRT-PCR, and the myostatin mRNA expression value was corrected using the expression value of beta-actin."}}}
{"smiles": "O=C(O)[C@H]1CCCN1", "note": "[D-proline]", "values": [{"measurement": "mRNA expression level of myostatin", "setting": "[1]; D-proline at 0.1 mM or more (0.1 and 1 mM tested), 24 hours (FIG. 9)", "result": "decreased"}, {"measurement": "promoter activity of myostatin", "setting": "[2]; D-proline at 0.001 mM or more (0.001-1 mM tested), 24 hours (FIG. 8)", "result": "decreased"}]}
{"smiles": "CC(C)C[C@@H](N)C(=O)O", "note": "[D-leucine]", "values": [{"measurement": "expression of myostatin mRNA", "setting": "[1]; D-leucine 0.01, 0.1 and 1 mM, after one day", "result": "decreased in a dose-dependent manner"}, {"measurement": "myostatin promoter activity reduced by", "setting": "[2]", "result": 54, "unit": "%"}]}
{"smiles": "C[C@@H](N)C(=O)O", "note": "[D-alanine]", "values": [{"measurement": "mRNA expression level of myostatin", "setting": "[1]; D-alanine at 0.001 mM or more (0.001-1 mM tested), 12 hours (FIG. 7)", "result": "decreased"}, {"measurement": "promoter activity of myostatin", "setting": "[2]; D-alanine at 0.01 mM or more (0.01-10 mM tested), 12 hours (FIG. 6)", "result": "decreased"}]}
{"smiles": "CC(C)CC(N)C(=O)O", "note": "(racemic) [DL-leucine]", "values": [{"measurement": "myostatin promoter activity reduced by", "setting": "[2]", "result": 41, "unit": "%"}]}
